Where two headings read alike, the source gives them in different places.
Tests used:
[1] = biological target: T1, CYP17 (human testicular microsome) (Homo sapiens, UniProt P05093); test: CYP17 enzymatic assay (IC50) (Biological Example 4); assay type: biochemical
T1 construct: using microsomal fraction from human testis (Celsis Cat #S00110) as the enzyme source; tissue Celsis S00110; host or cells: human testis microsomal fraction
T1 sequence (P05093 1-508): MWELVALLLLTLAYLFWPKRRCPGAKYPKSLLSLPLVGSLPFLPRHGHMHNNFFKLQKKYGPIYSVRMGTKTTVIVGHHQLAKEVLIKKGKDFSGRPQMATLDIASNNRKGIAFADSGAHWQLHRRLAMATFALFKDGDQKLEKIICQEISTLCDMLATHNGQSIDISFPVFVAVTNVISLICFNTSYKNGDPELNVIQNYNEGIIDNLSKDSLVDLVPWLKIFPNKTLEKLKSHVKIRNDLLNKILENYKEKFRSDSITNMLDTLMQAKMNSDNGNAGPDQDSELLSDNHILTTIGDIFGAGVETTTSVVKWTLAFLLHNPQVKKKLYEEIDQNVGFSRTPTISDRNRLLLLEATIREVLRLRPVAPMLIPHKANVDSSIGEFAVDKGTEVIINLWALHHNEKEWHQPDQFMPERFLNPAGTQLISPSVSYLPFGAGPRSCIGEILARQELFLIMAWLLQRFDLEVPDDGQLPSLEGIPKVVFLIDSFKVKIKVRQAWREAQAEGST

[2] = biological target: T1, CYP17 (human testicular microsome); test: CYP17 enzymatic assay (% inhibition at 10 nM), version 1 (Biological Example 5); assay type: biochemical; conditions: 10 nM compound, DHEA by ELISA, read-out: Biological Example No. 5: CYP17 percent inhibition at 10 nM (version 1)
[3] = Rat liver microsome stability assay (Biological Example 8a); conditions: liver microsomes, pH 7.4
[4] = Human liver microsome stability assay (Biological Example 8b); conditions: liver microsomes, pH 7.4
CYP17 (H295R cells) = biological target: T2, CYP17 (H295R cells) (Homo sapiens, UniProt P05093); test: CYP17 cellular assay (IC50), testosterone in H295R cells (Biological Example 7); assay type: cell-based
T2 construct: endogenous in cells; host or cells: H295R cells
T2 sequence (P05093 1-508): T1 sequence (P05093 1-508)
Procedure, shortened: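 H295R cells cultured 24 h, then exposed to compound at 100, 10, 1, 0.1 nM final in serum-free DMEM/F-12 with ITS+ and 0.1% methanol for 24 h at 37 °C. Medium testosterone measured by ELISA and plotted against compound concentration.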

[5] = human testicular microsome, DHEA by ELISA, read-out: Biological Example No. 4: CYP17 enzymatic assay IC50

IC50 [1, 5]	inhibition at 0.01 µM [2]	half-life at 1 μM [3]	half-life at 1 μM [4]	SMILES	IC50 [1]	IC50 (CYP17 (H295R cells))
< 11 nM	50 to 80%	1 to 10 min	–	Cc1cncc(C2=CC[C@H]3[C@@H]4CCN5C(=O)CCCC[C@]5(C)[C@H]4CC[C@]23C)c1 [Compound 39, (11aR,13aS)-11a,13a-dimethyl-1-(5-methylpyridin-3-yl)-3b,4,5,8,9,10,11,11a,11b,12,13,13a-dodecahydro-3H-azepino[2,1-a]cyclopenta[f]isoquinolin-7(3aH)-one]	–	–
< 11 nM	> 80%	1 to 10 min	–	COc1cncc(C2=CC[C@H]3[C@@H]4CCN5C(=O)CCCC[C@]5(C)[C@H]4CC[C@]23C)c1 [Compound 40, (11aR,13aS)-1-(5-methoxypyridin-3-yl)-11a,13a-dimethyl-3b,4,5,8,9,10,11,11a,11b,12,13,13a-dodecahydro-3H-azepino[2,1-a]cyclopenta[f]isoquinolin-7(3aH)-one]	–	–
< 11 nM	> 80%	1 to 10 min	–	CCc1cncc(C2=CC[C@H]3[C@@H]4CCN5C(=O)CCCC[C@]5(C)[C@H]4CC[C@]23C)c1 [Compound 41, (11aR,13aS)-1-(5-ethylpyridin-3-yl)-11a,13a-dimethyl-3b,4,5,8,9,10,11,11a,11b,12,13,13a-dodecahydro-3H-azepino[2,1-a]cyclopenta[f]isoquinolin-7(3aH)-one]	–	–
–	50 to 80%	10 to 60 min	–	CCCOc1cncc(C2=CC[C@H]3[C@@H]4CCN5CCCCC[C@]5(C)[C@H]4CC[C@]23C)c1 [Compound 46, (11aR,13aS)-11a,13a-dimethyl-1-(5-propoxypyridin-3-yl)-3a,3b,4,5,7,8,9,10,11,11a,11b,12,13,13a-tetradecahydro-3H-azepino[2,1-a]cyclopenta[f]isoquinoline]	–	–
–	1 to 50%	1 to 10 min	–	CCc1cncc(C2=CC[C@H]3[C@@H]4CCN5CCCCC[C@]5(C)[C@H]4CC[C@]23C)c1 [Compound 48, (11aR,13aS)-1-(5-ethylpyridin-3-yl)-11a,13a-dimethyl-3a,3b,4,5,7,8,9,10,11,11a,11b,12,13,13a-tetradecahydro-3H-azepino[2,1-a]cyclopenta[f]isoquinoline]	–	–
–	> 80%	1 to 10 min	–	C[C@]12CCNC(=O)C=C1CC[C@@H]1[C@@H]2CC[C@]2(C)C(n3ncnn3)=CC[C@@H]12 [Compound 63]	–	–
< 11 nM	50 to 80%	10 to 60 min	–	C[C@]12CCCCC[C@@H]1CC[C@@H]1[C@@H]2CC[C@]2(C)C(n3ccnc3)=CC[C@@H]12 [Compound 97, 1-((3aS,3bR,5aR,10aS,10bS,12aS)-10a,12a-dimethyl-3,3a,3b,4,5,5a,6,7,8,9,10,10a,10b,11,12,12a-hexadecahydrocyclohepta[a]cyclopenta[f]naphthalen-1-yl)-1H-imidazole]	–	–
< 11 nM	50 to 80%	1 to 10 min	–	CN1C(=O)COC[C@@]2(C)C1CC[C@@H]1[C@@H]2CC[C@]2(C)C(c3cccnc3)=CC[C@@H]12 (stereo partly drawn) [Compound 98, (5aR,5bS,7aS,10aS,10bS)-1,5a,7a-trimethyl-8-(pyridin-3-yl)-5,5a,5b,6,7,7a,10,10a,10b,11,12,12a-dodecahydro-1H-cyclopenta[5,6]naphtho[2,1-e][1,4]oxazepin-2(3H)-one]	–	–
< 11 nM	> 80%	1 to 10 min	> 50 min	C[C@]12CC(=O)C[C@@H]1CC[C@@H]1[C@@H]2CC[C@]2(C)C(n3ccnc3)=CC[C@@H]12 [Compound 108, (3aS,3bS,5aS,8aS,8bR,10aS)-6-(1H-imidazol-1-yl)-3a,5a-dimethyl-3,3a,3b,4,5,5a,8,8a,8b,9,10,10a-dodecahydrodicyclopenta[a,f]naphthalen-2(1H)-one]	–	–
–	1 to 50%	1 to 10 min	–	Cc1cncc(C2=CC[C@H]3[C@@H]4CC[C@H]5COC(=O)CC[C@]5(C)[C@H]4CC[C@]23C)c1 [Compound 119, (5aR,5bS,7aS,10aS,10bR,12aR)-5a,7a-dimethyl-8-(5-methylpyridin-3-yl)-5,5a,5b,6,7,7a,10,10a,10b,11,12,12a-dodecahydro-1H-cyclopenta[5,6]naphtho[2,1-c]oxepin-3(4H)-one]	–	–
< 11 nM	> 80%	1 to 10 min	–	C[C@]12CCOCC[C@@H]1CC[C@@H]1[C@@H]2CC[C@]2(C)C(c3cccnc3)=CC[C@@H]12 [Compound 120, 3-((5aS,5bS,7aS,10aS,10bR,12aS)-5a,7a-dimethyl-2,4,5,5a,5b,6,7,7a,10,10a,10b,11,12,12a-tetradecahydro-1H-cyclopenta[5,6]naphtho[1,2-d]oxepin-8-yl)pyridine]	–	–
< 11 nM	> 80%	1 to 10 min	–	C[C@]12CCCOC[C@H]1CC[C@@H]1[C@@H]2CC[C@]2(C)C(c3cccnc3)=CC[C@@H]12 [Compound 121, 3-((5aR,5bS,7aS,10aS,10bR,12aS)-5a,7a-dimethyl-3,4,5,5a,5b,6,7,7a,10,10a,10b,11,12,12a-tetradecahydro-1H-cyclopenta[5,6]naphtho[2,1-c]oxepin-8-yl)pyridine]	–	–
< 11 nM	50 to 80%	1 to 10 min	–	COc1cncc(C2=CC[C@H]3[C@@H]4CC[C@H]5CCOCC[C@]5(C)[C@H]4CC[C@]23C)c1 [Compound 122, 3-((5aS,5bS,7aS,10aS,10bR,12aS)-5a,7a-dimethyl-2,4,5,5a,5b,6,7,7a,10,10a,10b,11,12,12a-tetradecahydro-1H-cyclopenta[5,6]naphtho[1,2-d]oxepin-8-yl)-5-methoxypyridine]	–	–
< 11 nM	50 to 80%	1 to 10 min	–	COc1cncc(C2=CC[C@H]3[C@@H]4CC[C@H]5COCCC[C@]5(C)[C@H]4CC[C@]23C)c1 [Compound 123, 3-((5aR,5bS,7aS,10aS,10bR,12aR)-5a,7a-dimethyl-3,4,5,5a,5b,6,7,7a,10,10a,10b,11,12,12a-tetradecahydro-1H-cyclopenta[5,6]naphtho[2,1-c]oxepin-8-yl)-5-methoxypyridine]	–	–
< 11 nM	50 to 80%	1 to 10 min	–	CCOc1cncc(C2=CC[C@H]3[C@@H]4CC[C@H]5COCCC[C@]5(C)[C@H]4CC[C@]23C)c1 [Compound 125, 3-((5aR,5bS,7aS,10aS,10bR,12aR)-5a,7a-dimethyl-3,4,5,5a,5b,6,7,7a,10,10a,10b,11,12,12a-tetradecahydro-1H-cyclopenta[5,6]naphtho[2,1-c]oxepin-8-yl)-5-ethoxypyridine]	–	–
< 11 nM	50 to 80%	1 to 10 min	–	Cc1cncc(C2=CC[C@H]3[C@@H]4CC[C@H]5COCCC[C@]5(C)[C@H]4CC[C@]23C)c1 [Compound 127, 3-((5aR,5bS,7aS,10aS,10bR,12aR)-5a,7a-dimethyl-3,4,5,5a,5b,6,7,7a,10,10a,10b,11,12,12a-tetradecahydro-1H-cyclopenta[5,6]naphtho[2,1-c]oxepin-8-yl)-5-methylpyridine]	–	–
< 11 nM	50 to 80%	10 to 60 min	–	Cc1cn(C2=CC[C@H]3[C@@H]4CCC5=CC(=O)NCC[C@]5(C)[C@H]4CC[C@]23C)cn1 [Compound 154]	–	–

SMILES	IC50 [1, 5]	inhibition at 0.01 µM [2]	half-life at 1 μM [3]	half-life at 1 μM [4]	IC50 [1]	IC50 (CYP17 (H295R cells))
Cc1cncc(C2=CC[C@H]3[C@@H]4CC(=O)C5CCCC[C@]5(C)[C@H]4CC[C@]23C)c1 (stereo partly drawn) [Compound 71, (10R,13S)-10,13-dimethyl-17-(5-methylpyridin-3-yl)-2,3,4,5,7,8,9,11,12,13,14,15-dodecahydro-1H-cyclopenta[a]phenanthren-6(10H)-one]	< 11 nM	–	1 to 10 min	–	–	–
COc1cncc(C2=CC[C@H]3[C@@H]4CC(=O)C5CCCC[C@]5(C)[C@H]4CC[C@]23C)c1 (stereo partly drawn) [Compound 72, (10R,13S)-17-(5-methoxypyridin-3-yl)-10,13-dimethyl-2,3,4,5,7,8,9,11,12,13,14,15-dodecahydro-1H-cyclopenta[a]phenanthren-6(10H)-one]	< 11 nM	–	1 to 10 min	–	–	–
C[C@]12CC[C@H]3[C@@H](CC[C@H]4C[C@@H](O)CC[C@@]43C)C1=CC=C2n1ccnn1 [Compound 176, (3S,8R,9S,10S,13S)-10,13-dimethyl-17-(1H-1,2,3-triazol-1-yl)-2,3,4,5,6,7,8,9,10,11,12,13-dodecahydro-1H-cyclopenta[a]phenanthren-3-ol]	–	–	1 to 10 min	–	> 25 nM	> 100 nM
